Results published in patent US5310916A, “Trifunctional agents useful as irreversible inhibitors of A1-adenosine receptors” (The United States of America as represented by the …, priority 1990, dated 1994).
≈ marks a conversion by molar mass, not a printed value.

Legend:
[1] = target: T1, A1-adenosine receptors (Rattus norvegicus, UniProt P25099); experiment: Competitive binding assay at A1 receptors ([3H]RPIA); conditions: for Ki: [3H]RPIA, rat brain membranes, read-out: Ki at central rat receptors, A1; for A2/A1 ratio: ratio of Ki values A2/A1
T1 construct: adenosine receptors in rat cerebral cortex membranes was assayed as described; from tissue; b141 says rat striatum
T1 sequence (P25099 1-326): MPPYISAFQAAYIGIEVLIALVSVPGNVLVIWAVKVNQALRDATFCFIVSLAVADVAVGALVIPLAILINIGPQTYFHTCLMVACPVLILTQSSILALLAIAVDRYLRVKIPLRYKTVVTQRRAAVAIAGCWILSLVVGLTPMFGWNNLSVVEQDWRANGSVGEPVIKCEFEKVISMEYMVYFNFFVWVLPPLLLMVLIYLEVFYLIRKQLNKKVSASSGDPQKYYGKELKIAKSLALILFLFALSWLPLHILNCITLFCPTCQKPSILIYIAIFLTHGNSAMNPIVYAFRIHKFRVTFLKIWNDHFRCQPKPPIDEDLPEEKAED
Experimental: Table 4 also indicates the synthesis method used for each compound therein.
(§1) A1 ligand = [^3 H]RPIA, A2 ligand = [^3 H]CGS21680
(§2) Inhibition of binding by a range of concentrations of an adenosine derivative was assessed in triplicate in at least three separate experiments. At least seven different concentrations spanning three orders of magnitude, adjusted appropriate for the IC50 of each compound were used. IC50 values Ci/mmol) or [^3 H]CGS21680. Inhibition of [^3 H]NECA binding of to A2 -adenosine receptors in rat striatal membranes were measured as described, except that 5 mM theophylline was used to define non-specific binding. N^6 -Cyclopentyladenosine was present at 50 nM to inhibit binding of the ligand at A1 -adenosine receptors. IC50 values were converted to Ki -values as described.

[2] = target: T2, A2-adenosine receptors (Rattus norvegicus, UniProt P30543); experiment: Competitive binding assay at A2 receptors ([3H]CGS21680); conditions: [3H]CGS21680, rat striatum; read-out: Ki at central rat receptors, A2
T2 construct: adenosine receptors in rat striatal membranes were measured as described; from tissue; host or cells: rat striatal membranes
T2 sequence (P30543 whole entry): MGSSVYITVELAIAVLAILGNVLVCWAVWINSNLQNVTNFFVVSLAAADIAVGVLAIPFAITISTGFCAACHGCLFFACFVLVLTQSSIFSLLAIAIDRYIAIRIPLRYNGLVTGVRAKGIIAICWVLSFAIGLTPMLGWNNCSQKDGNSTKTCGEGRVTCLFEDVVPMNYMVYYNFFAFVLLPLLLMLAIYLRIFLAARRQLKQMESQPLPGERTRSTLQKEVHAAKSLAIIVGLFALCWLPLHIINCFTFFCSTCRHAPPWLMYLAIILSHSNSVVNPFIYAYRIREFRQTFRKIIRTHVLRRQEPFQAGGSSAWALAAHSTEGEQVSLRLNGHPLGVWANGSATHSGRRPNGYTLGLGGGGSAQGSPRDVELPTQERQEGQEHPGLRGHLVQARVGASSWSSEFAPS
Experimental: The Ki values (in nM) for A1 and A2 binding in rat striatum are presented in Table 4 with the relative selectivities expressed as the ratio of Ki values. […] Table 4 also indicates the synthesis method used for each compound therein.
as §1, §2

[3] = Solubility of analogs in pH 7.2 phosphate buffer; format: physicochemical; conditions: aqueous buffer; pH 7.2 phosphate buffer with DMSO, 2-3 h room temperature, absorbance at 310 nm, mean of 3
Experimental: The method for determining the solubilities of the xanthines is detailed in the Experimental Section below.
Solubility of Analogs. To 675 uL of pH 7.2 phosphate buffer was added 25 uL of a DMSO solution (approx. 10 mM) of the xanthine to be assayed. This was stirred for one minutes by a vortex mixer then left at room temperature for 2-3 hours. In each case (except where noted) a fine precipitate resulted which was collected by centrifugation at the end of the waiting period. After the dissolution period, a 100 uL aliquot of the supernatant was added to 1.0 mL of methanol and the absorbance measured at 310 nm using an extinction coefficient of 28,180 for calculating the concentration. Each xanthine was assayed 3 times and the concentration represent the averages of these 3 determinations.

[4] = target: rat brain A1-receptors; conditions: prior work; cited from earlier work
[5] = target: T1, A1-adenosine receptors; format: binding; conditions: 0.75 h; for inhibition at 0.02 µM: 20 nM
Experimental: The degree of irreversible binding was determined as previously described and the percent inhibition of selected compounds is presented in Table 5.
Irreversible Binding to Rat Brain. For studies of irreversible incorporation, membranes were prepared as described above and then incubated with the indicated (Tables I and II) concentration of ligand for 45 minutes at 37° C. […] Membranes were then suspended in Buffer A containing 10^-4 M 3-isobutyl-1-methylxanthine (IBMX) and incubated at 25° C. for 18 hours with shaking. Membranes were then washed twice with Buffer A, treated with adenosine deaminase as described above, and used in radioligand binding studies as described above.
The long treatment with IBMX was found necessary to remove all of the non-incorporated ligands from membranes. Multiple washes (up to 8) with buffer alone were insufficient to remove all the reversibly bound ligands.

`CCCn1c(=O)c2[nH]c(-c3ccc(OCC(=O)NCCNC(=S)Nc4cc(N=C=S)cc(C(=O)OC(=O)c5cc(N=C=S)cc(N=C=S)c5)c4)cc3)nc2n(CCC)c1=O` gave a Ki [1] of 45 ± 3.5 nM, an A2/A1 ratio [1] of 11 and a Ki [2] of 493 ± 200 nM.

With `CCCn1c(=O)c2[nH]c(-c3ccc(OCC(=O)NCCNC(=S)Nc4cc(N=C=S)cc(NC(=S)NCC(=O)OC(C)(C)C)c4)cc3)nc2n(CCC)c1=O` the Ki [1] was 8.3 ± 2.2 nM, the A2/A1 ratio [1] was 397 and the Ki [2] was 3290 nM.

`CCCn1c(=O)c2[nH]c(-c3ccc(OCC(=O)NCCNC(=S)Nc4cc(N=C=S)cc(NC(=S)NCCNc5ccc(N=[N+]=[N-])cc5[N+](=O)[O-])c4)cc3)nc2n(CCC)c1=O` gave a Ki [1] of 27.3 ± 7.2 nM, an A2/A1 ratio [1] of 31 and a Ki [2] of 842 nM.

Work on `CCCn1c(=O)c2[nH]c(-c3ccc(OCC(=O)NCCNC(=S)Nc4cc(N=C=S)cc(NC(=S)NCCNC(=O)c5ccc(N=[N+]=[N-])cc5O)c4)cc3)nc2n(CCC)c1=O` yielded a Ki [1] of 25.2 nM, an A2/A1 ratio [1] of 14 and a Ki [2] of 341 nM.

Molecule `CCCn1c(=O)c2[nH]c(-c3ccc(OCC(=O)NCCNC(=S)Nc4cccc(N=C=S)c4)cc3)nc2n(CCC)c1=O` [Compound 7] has a Ki [1] of 2.39 ± 0.35 nM, an A2/A1 ratio [1] of 144 and a Ki [2] of 343 nM. The solubility [3] was 90.1 ± 0.56 µM (≈ 55.9 µg/mL) and the Ki [4] was 2.4 nM.

Molecule `CCCn1c(=O)c2[nH]c(-c3ccc(OCC(=O)NCCNC(=S)Nc4cccc(N=C=S)n4)cc3)nc2n(CCC)c1=O` [Compound 8, 1,3-Dipropyl-8-(4-(((((2-((((6-isothiocyanatopyrido)amino)thiocarbonyl)amino)ethyl)amino)carbonyl)methyl)oxy)phenyl)xanthine] has a Ki [1] of 16.2 ± 1.96 nM, an A2/A1 ratio [1] of 27 and a Ki [2] of 432 ± 20 nM. The solubility [3] was 17.5 ± 0.06 µM (≈ 10.9 µg/mL).

With `CCCn1c(=O)c2[nH]c(-c3ccc(OCC(=O)NCCNC(=S)Nc4cc(CO)cc(N=C=S)c4)cc3)nc2n(CCC)c1=O` [Compound 9, 1,3-Dipropyl-8-(4-(((((2-((((3-hydroxymethyl-5-isothiocyanatophenyl)amino)thiocarbonyl)amino)ethyl)amino)carbonyl)methyl)oxyl)phenyl)xanthine] the Ki [1] was 13.4 ± 2.64 nM, the A2/A1 ratio [1] was 32 and the Ki [2] was 433 ± 45 nM. It also gave a solubility [3] of 10.8 ± 0.03 µM (≈ 7.03 µg/mL).

`CCCn1c(=O)c2[nH]c(-c3ccc(OCC(=O)NCCNC(=S)Nc4cc(N=C=S)cc(C(=O)OCC)c4)cc3)nc2n(CCC)c1=O` [Compound 11, 1,3-Dipropyl-8-(4-(((((2-((((3-carbethoxy-5-isothiocyanatophenyl)amino)thiocarbonyl)amino)ethyl)amino)carbonyl)methyl)oxyl)phenyl)xanthine] gave a Ki [1] of 41.6 ± 8.2 nM, an A2/A1 ratio [1] of 19 and a Ki [2] of 815 ± 145 nM. The solubility [3] was 9.33 ± 0.43 µM (≈ 6.46 µg/mL).

In the case of `CCCn1c(=O)c2[nH]c(-c3ccc(OCC(=O)NCCNC(=S)Nc4cc(N=C=S)cc(C(N)=O)c4)cc3)nc2n(CCC)c1=O` [Compound 13, 1,3-Dipropyl-8-(4-(((((2-((((3-carboxamide-5-isothiocyanatophenyl)amino)thiocarbonyl)amino)ethyl)amino)carbonyl)methyl)oxy)phenyl)xanthine], the Ki [1] is reported as 9.47 ± 2.99 nM, the A2/A1 ratio [1] is reported as 39 and the Ki [2] is reported as 365 ± 35 nM. The inhibition at 0.005 µM ([5]; 5 nM) was 68 ± 7.5%, the inhibition at 0.02 µM [5] was 90.3 ± 7% and the solubility [3] was 31.4 ± 0.39 µM (≈ 20.8 µg/mL).

In the case of `CCCn1c(=O)c2[nH]c(-c3ccc(OCC(=O)NCCNC(=S)Nc4cc(N=C=S)cc(C(=O)NCCN(C)C)c4)cc3)nc2n(CCC)c1=O` [Compound 14, 1,3-Dipropyl-8-(4-(((((2-((((3-(2-dimethylaminoethylcarboxamide)-5-isothiocyanatophenyl)amino)thiocarbonyl)amino)ethyl)amino)carbonyl)methyl)oxy)phenyl)xanthine], the Ki [1] is reported as 7.62 ± 2.19 nM, the A2/A1 ratio [1] is reported as 65 and the Ki [2] is reported as 497 ± 74 nM. The inhibition at 0.02 µM [5] was 30 ± 8.7%, the inhibition at 0.05 µM ([5]; 50 nM) was 46.3 ± 21.8% and the solubility [3] was 28.7 ± 0.03 µM (≈ 21.1 µg/mL).

In the case of `CCCn1c(=O)c2[nH]c(-c3ccc(OCC(=O)NCCNC(=S)Nc4cc(N=C=S)cc(C(=O)NCCNC(C)=O)c4)cc3)nc2n(CCC)c1=O` [Compound 16, 1,3-Dipropyl-8-(4-(((((2-((((3-(2-acetylaminoethylcarboxamide)-5-isothiocyanatophenyl)amino)thiocarbonyl)amino)ethyl)amino)carbonyl)methyl)oxy)phenyl)xanthine], the Ki [1] is reported as 7.01 ± 0.52 nM, the A2/A1 ratio [1] is reported as 35 and the Ki [2] is reported as 247 ± 36 nM. It also gave a solubility [3] of over 1000 µM.

`CCCn1c(=O)c2[nH]c(-c3ccc(OCC(=O)NCCNC(=S)Nc4cc(N=C=S)cc(C(=O)NCCNC(=O)CCc5ccc(O)cc5)c4)cc3)nc2n(CCC)c1=O` [Compound 17] showed a Ki [1] of 7.08 ± 1.91 nM, an A2/A1 ratio [1] of 198 and a Ki [2] of 1400 nM.

`CCCn1c(=O)c2[nH]c(-c3ccc(OCC(=O)NCCNC(=S)Nc4cc(N=C=S)cc(N=C=S)c4)cc3)nc2n(CCC)c1=O` [Compound 23, 1,3-Dipropyl-8-(4-(((((2-((((3,5-diisothiocyanatophenyl)amino)thiocarbonyl)amino)ethyl)amino)carbonyl)methyl)oxy)phenyl)-xanthine] showed a Ki [1] of 3.96 ± 0.59 nM, an A2/A1 ratio [1] of 894 and a Ki [2] of 3540 ± 936 nM.

`CCCn1c(=O)c2[nH]c(-c3ccc(OCC(=O)NCCNC(=S)Nc4cc(N=C=S)cc(NC(=S)NCCN(C)C)c4)cc3)nc2n(CCC)c1=O` [Compound 24] gave a Ki [1] of 77.2 ± 2.5 nM, an A2/A1 ratio [1] of 25 and a Ki [2] of 1910 ± 303 nM.

In the case of `CCCn1c(=O)c2[nH]c(-c3ccc(OCC(=O)NCCNC(=S)Nc4cc(N=C=S)cc(NC(=S)NCCNC(C)=O)c4)cc3)nc2n(CCC)c1=O` [Compound 25], the Ki [1] is reported as 57.6 ± 15.7 nM, the A2/A1 ratio [1] is reported as 44 and the Ki [2] is reported as 2540 ± 283 nM. The solubility [3] was over 100 µM.

`CCCn1c(=O)c2[nH]c(-c3ccc(OCC(=O)NCCNC(=S)Nc4cc(N=C=S)cc(C(=O)NCCNc5ccc([N+](=O)[O-])c6nonc56)c4)cc3)nc2n(CCC)c1=O` [R' = CONH(CH2)2 NH-NBD] showed a Ki [1] of 18.1 nM, an A2/A1 ratio [1] of 73 and a Ki [2] of 1330 nM.

Molecule `CCCn1c(=O)c2[nH]c(-c3ccc(OCC(=O)NCCNC(=S)Nc4cc(N=C=S)cc(C(=O)NCCNC(=O)CCCC[C@@H]5SC[C@@H]6NC(=O)N[C@@H]65)c4)cc3)nc2n(CCC)c1=O` [R' = CONH(CH2)2 NHCO-biotin] has a Ki [1] of 20.1 ± 3.3 nM, an A2/A1 ratio [1] of 572 and a Ki [2] of 11500 nM.

In the case of `CCCn1c(=O)c2[nH]c(-c3ccc(OCC(=O)NCCNC(=S)Nc4cc(N=C=S)cc(C(=O)NCCNC(=O)CBr)c4)cc3)nc2n(CCC)c1=O` [R' = CONH(CH2)2 NHCOCH2 Br], the Ki [1] is reported as 15.8 nM, the A2/A1 ratio [1] is reported as 44 and the Ki [2] is reported as 688 nM.

`CCCn1c(=O)c2[nH]c(-c3ccc(OCC(=O)NCCNC(=S)Nc4cc(N=C=S)cc(NC(=S)NCCNC(=S)Nc5ccc(C(=O)O)c(-c6c7ccc(=O)cc-7oc7cc(O)ccc67)c5)c4)cc3)nc2n(CCC)c1=O` [R' = NHCSNH(CH2)2 NHCSNH-fluorescein] showed a Ki [1] of 234 ± 32.5 nM, an A2/A1 ratio [1] of 8 and a Ki [2] of 1790 nM.

For `CCCn1c(=O)c2[nH]c(-c3ccc(OCC(=O)NCCN)cc3)nc2n(CCC)c1=O` [XAC, 8-[4-[[[[(2-aminoethyl)-amino]carbonyl]methyl]oxy]phenyl]-1,3-dipropylxanthine], the Ki [4] is listed as 1.2 nM.

In the case of `CCCn1c(=O)c2[nH]c(-c3ccc(OCC(=O)NCCNC(=S)Nc4ccc(N=C=S)cc4)cc3)nc2n(CCC)c1=O` [p-DITC-XAC (2b)], the Ki [4] is given as 6.6 nM.
